# Measurements from US9856290B2, “Glycopeptide compositions and uses thereof” (SUSSEX RESEARCH LABORATORIES INC., priority 2013, dated 2018).
# Where a SMILES comes first, the peptide text is derived from it.
# Columns and labels:
# [1] = system: Human Dermal Fibroblasts (KMST-6); assay: Cell Viability MTT Assay; format: cell-based; details: 5 μM, KMST-6, 48 and 72 hours; toxicity defined as viability less than 50% of control
# Protocol: KMST-6 cells (Japan Health Sciences Foundation, JCRB0433) were seeded at 7,000 cells/ml in complete media. The complete media consists of the following: MEM/EBSS (Hyclone, SH30024.01), 10% Heat-Inactivated FBS (Gibco, 10082-147), 1% L-Glutamine (Hyclone, SH30031.01), 1% Nucleosides (800 mg/L Adenosine, 850 mg/L Guanidine, 730 mg/L Cytidine, 730 mg/L Uridine and 240 mg/L Thymidine), 1% Penicillin/Streptomycin (HyClone, SV30010), 1% Sodium Pyruvate (HyClone, SH30239.01), 1% Non-Essential Amino Acids (Hyclone, SH30238.01) and 0.04% Gentamicin (Gibco, 15710-064). Cells were grown for 2 days prior to treatments. […] The absorbance was measured with a microplate reader (Molecular Devices, SpectraMax M2e) at 570 nm. […]
# To determine effects on cell viability as a measure of toxicity, 5 μM of the 6 exemplary glycopeptides were applied to Human Dermal Fibroblasts (KMST-6) as previously described. […] The absorbance was measured with a microplate reader (Molecular Devices, SpectraMax M2e) at 570 nm. Three or more independent experiments were performed and statistical significance was determined using One-way ANOVA (p<0.05). […]
# [2] = system: Human Dermal Fibroblasts (KMST-6); assay: Cell morphology (phase contrast images); format: cell-based; details: 5 μM
# Protocol: KMST-6 cells (Japan Health Sciences Foundation, JCRB0433) were seeded at 7,000 cells/ml in 12-well tissue culture treated plates (Falcon, 353043) in complete media. The complete media consists of the following: MEM/EBSS (Hyclone, SH30024.01), 10% Heat-Inactivated FBS (Gibco, 10082-147), 1% L-Glutamine (Hyclone, SH30031.01), 1% Nucleosides (800 mg/L Adenosine, 850 mg/L Guanidine, 730 mg/L Cytidine, 730 mg/L Uridine and 240 mg/L Thymidine), 1% Penicillin/Streptomycin (HyClone, SV30010), 1% Sodium Pyruvate (HyClone, SH30239.01), 1% Non-Essential Amino Acids (Hyclone, SH30238.01) and 0.04% Gentamicin (Gibco, 15710-064). Cells were grown for 2 days prior to treatments. The media was aspirated and cells were washed with 1×PBS (Fisher, SH30256.01) and treated with 5 μM glycopeptides (GP001-1, GP002-3, GP002-7, GP003-9, GP004-3 and GP004-4), reference (Pal-KTTKS, CPC Scientific, 822197), and control (DMSO, Fisher, BP231-100) in serum-free media supplemented with 50 μg/mL Sodium Ascorbate (Sigma, A4034) and 80 μg/mL β-Aminopropionate Fumarate (Sigma, A3134). The treated cells were incubated at 37° C. and 5% CO2 for 48 and 72 hours. At each time point, images were taken with an Olympus Opti-Tech Scientific Microscope (Lumenera, Infinity 2 camera at 10× magnification) and changes in cell size and morphology were recorded. […]
# fibroblast = details: under certain conditions; cited from earlier work
structure (smiles),measurement,setting,value
"CCCCCCCCCCCCCCCC(=O)N[C@@H](CCCCN)C(=O)N[C@H](C(=O)N[C@H](C(=O)N[C@@H](CCCCN)C(=O)N[C@@H](CO)C(=O)O)[C@@H](C)O)[C@@H](C)O [Reference, Pal-KTTKS] (HELM PEPTIDE1{[CCCCCCCCCCCCCCCC(=O)[*:2]].K.T.T.K.S}$$$$V2.0)",cell viability as a measure of toxicity (MTT assay),[1],significant decrease in cell viability
same,cell confluence compared to control and glycopeptide treated cells,[2]; KMST-6,demonstrated decrease in cell confluence
same,toxicity as observed through phase-contrast morphology,"[2]; KMST-6, 48 and 72 hours",visibly interfered with cell viability
same,fibroblast cell viability,fibroblast,decrease fibroblast cell viability
